Source: PubChem BioAssay (NCI)
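Growth conditions: 96-well plates. Treatment: test compound, 48 hours, 5 concentrations. Analysis: linear interpolation between bracketing concentrations; unreached endpoints set to highest concentration. GI50: concentration for 50% inhibition of growth. TGI is the concentration that stops growth completely.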

What was measured:
Assay in all cases: NCI-60 cell line screen, 48 h
A498 renal = tested on: A498 renal
A549 NSCLC = tested on: A549 NSCLC
ACHN renal = tested on: ACHN renal
BT-549 breast = tested on: BT-549 breast
CAKI-1 renal = tested on: CAKI-1 renal
CCRF-CEM leukemia = tested on: CCRF-CEM leukemia
COLO 205 colon = tested on: COLO 205 colon
DU-145 prostate = tested on: DU-145 prostate
EKVX NSCLC = tested on: EKVX NSCLC
HCC-2998 colon = tested on: HCC-2998 colon
HCT-116 colon = tested on: HCT-116 colon
HCT-15 colon = tested on: HCT-15 colon
HL-60(TB) leukemia = tested on: HL-60(TB) leukemia
HOP-62 NSCLC = tested on: HOP-62 NSCLC
HOP-92 NSCLC = tested on: HOP-92 NSCLC
HS 578T breast = tested on: HS 578T breast
IGROV1 ovarian = tested on: IGROV1 ovarian
K-562 leukemia = tested on: K-562 leukemia
KM12 colon = tested on: KM12 colon
LOX IMVI melanoma = tested on: LOX IMVI melanoma
M14 melanoma = tested on: M14 melanoma
MALME-3M melanoma = tested on: MALME-3M melanoma
MCF7 breast = tested on: MCF7 breast
MDA-MB-231 breast = tested on: MDA-MB-231 breast
MDA-MB-435 = tested on: MDA-MB-435
MDA-MB-468 breast = tested on: MDA-MB-468 breast
MOLT-4 leukemia = tested on: MOLT-4 leukemia
NCI-H226 lung = tested on: NCI-H226 lung
NCI-H23 lung = tested on: NCI-H23 lung
NCI-H460 lung = tested on: NCI-H460 lung
NCI-H522 lung = tested on: NCI-H522 lung
NCI/ADR-RES ovarian = tested on: NCI/ADR-RES ovarian
OVCAR-3 ovarian = tested on: OVCAR-3 ovarian
OVCAR-4 ovarian = tested on: OVCAR-4 ovarian
OVCAR-5 ovarian = tested on: OVCAR-5 ovarian
OVCAR-8 ovarian = tested on: OVCAR-8 ovarian
PC-3 prostate = tested on: PC-3 prostate
RPMI-8226 leukemia = tested on: RPMI-8226 leukemia
RXF 393 renal = tested on: RXF 393 renal
SF-268 CNS = tested on: SF-268 CNS
SF-295 CNS = tested on: SF-295 CNS
SF-539 CNS = tested on: SF-539 CNS
SK-MEL-2 melanoma = tested on: SK-MEL-2 melanoma
SK-MEL-28 melanoma = tested on: SK-MEL-28 melanoma
SK-MEL-5 melanoma = tested on: SK-MEL-5 melanoma
SK-OV-3 ovarian = tested on: SK-OV-3 ovarian
SN12C renal = tested on: SN12C renal
SNB-19 CNS = tested on: SNB-19 CNS
SNB-75 CNS = tested on: SNB-75 CNS
SR leukemia = tested on: SR leukemia
SW-620 colon = tested on: SW-620 colon
T-47D breast = tested on: T-47D breast
TK-10 renal = tested on: TK-10 renal
U251 CNS = tested on: U251 CNS
UACC-257 melanoma = tested on: UACC-257 melanoma
UACC-62 melanoma = tested on: UACC-62 melanoma
UO-31 renal = tested on: UO-31 renal

Structure (SMILES): COc1cccc2nc(Nc3cccc(NC(=O)c4ccc(CN5CCN(C)CC5)c(C(F)(F)F)c4)c3)ccc12
- GI50 (A498 renal): 2 µM
- TGI (A498 renal): 4.98 µM
- GI50 (A549 NSCLC): 2.44 µM
- TGI (A549 NSCLC): 7.8 µM
- GI50 (ACHN renal): 2.05 µM
- TGI (ACHN renal): 4.4 µM
- GI50 (BT-549 breast): 7.01 µM
- TGI (BT-549 breast): 19.2 µM
- GI50 (CAKI-1 renal): 1.81 µM
- TGI (CAKI-1 renal): 4.13 µM
- GI50 (CCRF-CEM leukemia): 2.1 µM
- TGI (CCRF-CEM leukemia): 6.43 µM
- GI50 (COLO 205 colon): 1.79 µM
- TGI (COLO 205 colon): 3.38 µM
- GI50 (DU-145 prostate): 1.98 µM
- TGI (DU-145 prostate): 4.42 µM
- GI50 (EKVX NSCLC): 2.1 µM
- TGI (EKVX NSCLC): 4.71 µM
- GI50 (HCC-2998 colon): 1.99 µM
- TGI (HCC-2998 colon): 3.45 µM
- GI50 (HCT-116 colon): 1.82 µM
- TGI (HCT-116 colon): 3.57 µM
- GI50 (HCT-15 colon): 1.78 µM
- TGI (HCT-15 colon): 3.56 µM
- GI50 (HL-60(TB) leukemia): 1.22 µM
- TGI (HL-60(TB) leukemia): 4.09 µM
- GI50 (HOP-62 NSCLC): 1.56 µM
- TGI (HOP-62 NSCLC): 3.11 µM
- GI50 (HOP-92 NSCLC): 1.5 µM
- TGI (HOP-92 NSCLC): 3.86 µM
- GI50 (HS 578T breast): 1.84 µM
- TGI (HS 578T breast): 4.57 µM
- GI50 (IGROV1 ovarian): 2.25 µM
- TGI (IGROV1 ovarian): 4.82 µM
- GI50 (K-562 leukemia): 2.7 µM
- TGI (K-562 leukemia): > 100 µM
- GI50 (KM12 colon): 2.13 µM
- TGI (KM12 colon): 4.59 µM
- GI50 (LOX IMVI melanoma): 1.74 µM
- TGI (LOX IMVI melanoma): 3.26 µM
- GI50 (M14 melanoma): 1.76 µM
- TGI (M14 melanoma): 3.63 µM
- GI50 (MALME-3M melanoma): 1.65 µM
- TGI (MALME-3M melanoma): 3.08 µM
- GI50 (MCF7 breast): 1.57 µM
- TGI (MCF7 breast): 3.2 µM
- GI50 (MDA-MB-231 breast): 1.77 µM
- TGI (MDA-MB-231 breast): 3.39 µM
- GI50 (MDA-MB-435): 1.68 µM
- TGI (MDA-MB-435): 3.21 µM
- GI50 (MDA-MB-468 breast): 1.92 µM
- TGI (MDA-MB-468 breast): 3.89 µM
- GI50 (MOLT-4 leukemia): 1.45 µM
- TGI (MOLT-4 leukemia): 7.59 µM
- GI50 (NCI-H226 lung): 4.63 µM
- TGI (NCI-H226 lung): 15.8 µM
- GI50 (NCI-H23 lung): 1.91 µM
- TGI (NCI-H23 lung): 3.73 µM
- GI50 (NCI-H460 lung): 1.71 µM
- TGI (NCI-H460 lung): 3.19 µM
- GI50 (NCI-H522 lung): 1.79 µM
- TGI (NCI-H522 lung): 3.65 µM
- GI50 (NCI/ADR-RES ovarian): 2.28 µM
- TGI (NCI/ADR-RES ovarian): 5.95 µM
- GI50 (OVCAR-3 ovarian): 2.15 µM
- TGI (OVCAR-3 ovarian): 5.17 µM
- GI50 (OVCAR-4 ovarian): 2.21 µM
- TGI (OVCAR-4 ovarian): 5.94 µM
- GI50 (OVCAR-5 ovarian): 1.84 µM
- TGI (OVCAR-5 ovarian): 3.71 µM
- GI50 (OVCAR-8 ovarian): 3.09 µM
- TGI (OVCAR-8 ovarian): 10.7 µM
- GI50 (PC-3 prostate): 1.7 µM
- TGI (PC-3 prostate): 4.46 µM
- GI50 (RPMI-8226 leukemia): 2.78 µM
- TGI (RPMI-8226 leukemia): 8.34 µM
- GI50 (RXF 393 renal): 1.73 µM
- TGI (RXF 393 renal): 3.96 µM
- GI50 (SF-268 CNS): 1.69 µM
- TGI (SF-268 CNS): 3.75 µM
- GI50 (SF-295 CNS): 1.77 µM
- TGI (SF-295 CNS): 3.31 µM
- GI50 (SF-539 CNS): 1.64 µM
- TGI (SF-539 CNS): 3.01 µM
- GI50 (SK-MEL-2 melanoma): 3.52 µM
- TGI (SK-MEL-2 melanoma): 12.2 µM
- GI50 (SK-MEL-28 melanoma): 1.71 µM
- TGI (SK-MEL-28 melanoma): 3.13 µM
- GI50 (SK-MEL-5 melanoma): 1.62 µM
- TGI (SK-MEL-5 melanoma): 3.02 µM
- GI50 (SK-OV-3 ovarian): 9.22 µM
- TGI (SK-OV-3 ovarian): 22.6 µM
- GI50 (SN12C renal): 1.71 µM
- TGI (SN12C renal): 3.3 µM
- GI50 (SNB-19 CNS): 1.78 µM
- TGI (SNB-19 CNS): 3.38 µM
- GI50 (SNB-75 CNS): 1.6 µM
- TGI (SNB-75 CNS): 4.37 µM
- GI50 (SR leukemia): 1.85 µM
- TGI (SR leukemia): 5.65 µM
- GI50 (SW-620 colon): 1.73 µM
- TGI (SW-620 colon): 3.27 µM
- GI50 (T-47D breast): 2.28 µM
- TGI (T-47D breast): 5.78 µM
- GI50 (TK-10 renal): 2.15 µM
- TGI (TK-10 renal): 4.65 µM
- GI50 (U251 CNS): 1.92 µM
- TGI (U251 CNS): 3.71 µM
- GI50 (UACC-257 melanoma): 1.98 µM
- TGI (UACC-257 melanoma): 3.85 µM
- GI50 (UACC-62 melanoma): 1.75 µM
- TGI (UACC-62 melanoma): 3.22 µM
- GI50 (UO-31 renal): 1.64 µM
- TGI (UO-31 renal): 3.18 µM
